Measured values published in patent US8350027B2, “Dual-acting pyrazole antihypertensive agents” (Theravance, Inc., priority 2009, dated 2013).

Key:
human AT1 receptor = molecular target: T1, human AT1 receptor (Homo sapiens, UniProt P30556); assay: AT1 radioligand binding assay (displacement of [Eu]AngII); conditions: membranes of CHO-K1 cells expressing cloned human AT1 receptor; values given as lower bounds; read-out: AT1 pKi (converted)
T1 construct: expressed in transfected cells; host or cells: CHO-K1
T1 sequence (P30556 1-359): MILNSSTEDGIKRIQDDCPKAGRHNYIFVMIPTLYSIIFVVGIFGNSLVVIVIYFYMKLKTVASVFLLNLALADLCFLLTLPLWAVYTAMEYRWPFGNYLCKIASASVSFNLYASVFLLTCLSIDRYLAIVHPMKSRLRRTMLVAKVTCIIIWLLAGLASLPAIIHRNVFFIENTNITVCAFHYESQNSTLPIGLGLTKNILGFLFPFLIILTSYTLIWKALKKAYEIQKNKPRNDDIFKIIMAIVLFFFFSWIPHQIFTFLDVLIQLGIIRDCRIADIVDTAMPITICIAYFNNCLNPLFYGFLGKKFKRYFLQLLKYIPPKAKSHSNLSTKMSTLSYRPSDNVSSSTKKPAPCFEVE
Procedure, shortened: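 Membranes from CHO-K1 cells stably expressing cloned human AT1, 0.2 μg protein, in 50 mM Tris/HCl pH 7.5, 5 mM MgCl2, 0.025% BSA. Compounds displaced [Eu]AngII over 120 min in the dark at room temperature or 37° C; filter-bound TRF read. Nonspecific binding with 10 μM angiotensin II; IC50 converted to Ki via Cheng-Prusoff, reported as pKi.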

NEP enzyme = molecular target: T2, NEP enzyme (Homo sapiens, UniProt P08473); assay: NEP enzyme inhibition assay (fluorogenic peptide substrate); format: biochemical; conditions: values given as lower bounds; * = prodrugs, may not exhibit NEP activity in an in vitro assay; read-out: NEP pIC50 (converted)
T2 construct: purchased R&D Systems, Minneapolis, Minn; 1182-ZN
T2 sequence (P08473 52-750 limits assumed): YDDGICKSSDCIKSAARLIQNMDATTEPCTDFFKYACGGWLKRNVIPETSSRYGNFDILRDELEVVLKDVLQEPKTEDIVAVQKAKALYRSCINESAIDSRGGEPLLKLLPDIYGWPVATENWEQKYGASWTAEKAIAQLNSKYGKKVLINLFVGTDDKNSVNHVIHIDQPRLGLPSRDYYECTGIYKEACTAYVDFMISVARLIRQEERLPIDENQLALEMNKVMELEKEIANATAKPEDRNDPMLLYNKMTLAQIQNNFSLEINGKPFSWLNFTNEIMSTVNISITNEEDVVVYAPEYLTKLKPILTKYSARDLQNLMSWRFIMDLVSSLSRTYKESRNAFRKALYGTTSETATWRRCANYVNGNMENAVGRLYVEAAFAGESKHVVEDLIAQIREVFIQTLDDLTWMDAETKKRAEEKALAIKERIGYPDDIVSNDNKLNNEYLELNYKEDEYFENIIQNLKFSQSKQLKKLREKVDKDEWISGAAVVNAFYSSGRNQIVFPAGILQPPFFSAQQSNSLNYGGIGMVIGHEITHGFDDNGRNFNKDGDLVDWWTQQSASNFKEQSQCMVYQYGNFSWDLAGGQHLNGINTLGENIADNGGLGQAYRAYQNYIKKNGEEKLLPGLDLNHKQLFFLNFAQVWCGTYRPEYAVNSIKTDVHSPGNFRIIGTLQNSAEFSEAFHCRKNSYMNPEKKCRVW
Procedure, shortened: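 Recombinant human NEP was run with Mca-BK2 (10 μM) at room temperature in Tris buffer with 1 μM Zn. Compounds (10 μM–20 pM, 12 points) were pre-equilibrated 10 min, then reacted 20 min and acid-stopped. Fluorescence ex 320/em 405 nm, one-site competition fit gives pIC50. Thiol compounds may be pre-treated with 400 μM TCEP.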

SMILES	Ki (human AT1 receptor)	IC50 (NEP enzyme)
CCCc1cc(C(=O)N[C@@H](CC(=O)NO)Cc2ccccc2)nn1Cc1ccc(-c2ccccc2S(=O)(=O)NC(C)=O)cc1 [Example 6-18, 1-(2′-Acetylsulfamoylbiphenyl-4-ylmethyl)-5-propyl-1H-pyrazole-3-carboxylic acid ((R)-1-benzyl-2-hydroxycarbamoylethyl)amide]	≤ 10 nM	≤ 100 nM
CCCc1cc(C(=O)N[C@H](Cc2ccccc2)[C@@H](O)C(=O)O)nn1Cc1c(F)cc(-c2ccccc2S(=O)(=O)NC(C)=O)cc1F [Example 6-19, (2R,3R)-3-(1-((2′-(N-acetylsulfamoyl)-3,5-difluorobiphenyl-4-yl)methyl)-5-propyl-1H-pyrazole-3-carboxamido)-2-hydroxy-4-phenylbutanoic acid]	≤ 10 nM	≤ 100 nM
CCCc1cc(C(=O)N[C@@H](CC(=O)NO)Cc2ccccc2)nn1Cc1c(F)cc(-c2ccccc2S(=O)(=O)NC(C)=O)cc1F [Example 6-20, 1-(2′-Acetylsulfamoyl-3,5-difluorobiphenyl-4-ylmethyl)-5-propyl-1H-pyrazole-3-carboxylic acid ((R)-1-hydroxycarbamoylmethyl-2-phenylethyl)amide]	≤ 10 nM	≤ 100 nM
CCCc1cc(C(=O)NC(CC(=O)NO)CC(C)C)nn1Cc1ccc(-c2ccccc2S(=O)(=O)NC(C)=O)c(F)c1 (stereo not drawn) [Example 6-21, 1-(2′-Acetylsulfamoyl-2-fluorobiphenyl-4-ylmethyl)-5-propyl-1H-pyrazole-3-carboxylic acid (1-hydroxycarbamoylmethyl-3-methylbutyl)amide]	≤ 10 nM	≤ 100 nM
CCCc1cc(C(=O)N[C@@H](Cc2ccccc2)CN(O)C=O)nn1Cc1ccc(-c2ccccc2S(=O)(=O)NC(C)=O)cc1 [Example 6-22, 1-(2′-Acetylsulfamoylbiphenyl-4-ylmethyl)-5-propyl-1H-pyrazole-3-carboxylic acid [(S)-1-benzyl-2-(formylhydroxyamino)ethyl]amide]	≤ 10 nM	≤ 100 nM
CCCc1cc(C(=O)N[C@@H](CC(C)C)CN(O)C=O)nn1Cc1ccc(-c2ccccc2S(=O)(=O)NC(C)=O)cc1 [Example 6-23, 1-(2′-Acetylsulfamoyl-biphenyl-4-ylmethyl)-5-propyl-1H-pyrazole-3-carboxylic acid {(S)-1-[(formylhydroxyamino)methyl]-3-methylbutyl}amide]	≤ 10 nM	≤ 100 nM
CCOc1cc(C(=O)N[C@@H](CC(=O)O)Cc2ccccc2)nn1Cc1ccc(-c2ccccc2S(=O)(=O)NC(C)=O)cc1F [Example 6-24, (R)-3-{[1-(2′-Acetylsulfamoyl-3-fluorobiphenyl-4-ylmethyl)-5-ethoxy-1H-pyrazole-3-carbonyl]amino}-4-phenylbutyric acid]	≤ 10 nM	≤ 10000 nM
CCCc1cc(C(=O)N[C@@H](CC(=O)O)Cc2ccccc2C(F)(F)F)nn1Cc1ccc(-c2ccccc2S(=O)(=O)NC(C)=O)cc1 [Example 6-25, (R)-3-{[1-(2′-Acetylsulfamoylbiphenyl-4-ylmethyl)-5-propyl-1H-pyrazole-3-carbonyl]amino}-4-(2-trifluoromethylphenyl)butyric acid]	≤ 10 nM	≤ 1000 nM
CCCc1cc(C(=O)N[C@@H](CC(=O)O)Cc2ccccc2C)nn1Cc1ccc(-c2ccccc2S(=O)(=O)NC(C)=O)cc1 [Example 6-26, (R)-3-{[1-(2′-Acetylsulfamoylbiphenyl-4-ylmethyl)-5-propyl-1H-pyrazole-3-carbonyl]amino}-4-o-tolylbutyric acid]	≤ 10 nM	≤ 1000 nM
CCCc1cc(C(=O)N[C@@H](CC(=O)O)Cc2ccccc2Cl)nn1Cc1ccc(-c2ccccc2S(=O)(=O)NC(C)=O)cc1 [Example 6-27, (R)-3-{[1-(2′-Acetylsulfamoylbiphenyl-4-ylmethyl)-5-propyl-1H-pyrazole-3-carbonyl]amino}-4-(2-chlorophenyl)butyric acid]	≤ 10 nM	≤ 1000 nM
CCCc1cc(C(=O)N[C@@H](CC(=O)O)Cc2ccccc2)nn1Cc1ccc(-c2ccccc2S(=O)(=O)NC(C)=O)cc1 [Example 6-28, (R)-3-{[1-(2′-Acetylsulfamoylbiphenyl-4-ylmethyl)-5-propyl-1H-pyrazole-3-carbonyl]amino}-4-phenylbutyric acid]	≤ 10 nM	≤ 10000 nM
CCCc1cc(C(=O)N[C@H](Cc2ccccc2)[C@@H](O)C(=O)O)nn1Cc1ccc(-c2ccccc2S(=O)(=O)NC(=O)NCC)cc1 [Example 7-1, (2R,3R)-3-(1-((2′(N-(ethylcarbamoyl)sulfamoyl)biphenyl-4-yl)methyl)-5-propyl-1H-pyrazole-3-carboxamido)-2-hydroxy-4-phenylbutanoic acid]	≤ 10 nM	≤ 1000 nM
CCCc1cc(C(=O)N[C@H](Cc2ccccc2)[C@@H](O)C(=O)O)nn1Cc1ccc(-c2ccccc2S(=O)(=O)NC(=O)C2CC2)cc1 [Example 7-2, (2R,3R)-3-({1-[2′-(Cyclopropanecarbonylsulfamoyl)biphenyl-4-ylmethyl]-5-propyl-1H-pyrazole-3-carbonyl}amino)-2-hydroxy-4-phenylbutyric acid]	≤ 10 nM	≤ 100 nM
CCCc1cc(C(=O)N[C@H](Cc2ccccc2)[C@@H](O)C(=O)O)nn1Cc1ccc(-c2ccccc2S(=O)(=O)NC(=O)c2ccccc2F)cc1 [Example 7-3, (2R,3R)-3-({1-[2′-(2-Fluorobenzoylsulfamoyl)biphenyl-4-ylmethyl]-5-propyl-1H-pyrazole-3-carbonyl}amino)-2-hydroxy-4-phenylbutyric acid]	≤ 10 nM	≤ 1000 nM
CCCc1cc(C(=O)N[C@H](Cc2ccccc2)[C@@H](O)C(=O)O)nn1Cc1ccc(-c2ccccc2S(=O)(=O)NC(=O)c2ccncc2)cc1 [Example 7-4, (2R,3R)-2-Hydroxy-4-phenyl-3-[(5-propyl-1-{2′-[(pyridine-4-carbonyl)sulfamoyl]biphenyl-4-ylmethyl}-1H-pyrazole-3-carbonyl)amino]butyric acid]	≤ 10 nM	≤ 1000 nM
CCCc1cc(C(=O)N[C@H](Cc2ccccc2)[C@@H](O)C(=O)O)nn1Cc1ccc(-c2ccccc2S(=O)(=O)NC(=O)c2cc(C)on2)cc1 [Example 7-5, (2R,3R)-2-Hydroxy-3-[(1-{2′[(5-methylisoxazole-3-carbonyl)sulfamoyl]biphenyl-4-ylmethyl}-5-propyl-1H-pyrazole-3-carbonyl)amino]-4-phenylbutyric acid]	≤ 10 nM	≤ 1000 nM
CCCc1cc(C(=O)N[C@H](Cc2ccccc2)[C@@H](O)C(=O)O)nn1Cc1ccc(-c2ccccc2S(=O)(=O)NC(=O)c2ccno2)cc1 [Example 7-6, (2R,3R)-2-Hydroxy-3-[(1-{2′-[(isoxazole-5-carbonyl)sulfamoyl]biphenyl-4-ylmethyl}-5-propyl-1H-pyrazole-3-carbonyl)amino]-4-phenylbutyric acid]	≤ 10 nM	≤ 1000 nM
CCCc1cc(C(=O)N[C@H](Cc2ccccc2)[C@@H](O)C(=O)O)nn1Cc1ccc(-c2ccccc2S(=O)(=O)NC(=O)OCC)cc1 [Example 7-7, (2R,3R)-3-(1-((2′-(N-(ethoxycarbonyl)sulfamoyl)biphenyl-4-yl)methyl)-5-propyl-1H-pyrazole-3-carboxamido)-2-hydroxy-4-phenylbutanoic acid]	≤ 10 nM	≤ 1000 nM
